In US11578061B2, “Inhibitors of LRRK2 kinase” (Halia Therapeutics, Inc., priority 2021, dated 2023):
pIC50: −log10 of the molar value.

Target: recombinant human LRRK2 (catalytic domain only [amino acids 970-2527], GST-tagged) (Homo sapiens (Human), UniProt Q5S007)
Experiment: LRRK2 Enzymatic Assay
Format: biochemical
Conditions: LRRKtide substrate, [32P]-ATP
Description: LRRKtide substrate (peptide sequence RLGRDKYKTLRQIRQ, derived from human ezrin [amino acids 561-573], moesin [amino acids 539-553] and radixin [amino acids 558-570], obtained from SignalChem, catalogue #L10-58, reconstituted in 20 mM Tris-HCl at pH 7.5 to a final concentration of 1 mg/mL, assay concentration 20 μM) and recombinant human LRRK2 (catalytic domain only [amino acids 970-2527], GST-tagged, expressed in insect cells, obtained from ThermoFisher Scientific, catalogue #PV4874, 0.35 mg/mL, assay concentration 30 nM) were mixed in assay buffer (20 mM Hepes pH 7.5, 10 mM MgCl2, 1 mM EGTA, 0.02% Brij35, 0.02 mg/ml BSA, 0.1 mM Na3VO4, 2 mM DTT, 1% DMSO). Compounds of interest (in DMSO, serial 3-fold dilution from 10 μM to 0.5 nM) or control (1% DMSO) were dispensed into the kinase reaction mixture by Acoustic technology (Echo550; nanoliter range). After incubation at room temperature for 20 minutes, the kinase reaction was initiated by addition of [^32P]-ATP (Specific activity 10 μCi/μl) and the mixture was incubated at room temperature for 2 hours. The reaction was then stopped by spotting the reaction mixture on strips of phosphocellulose P81 paper. Following washing, the radioactivity of the P81 paper was measured and kinase activity data were expressed as the percent remaining kinase activity in test samples compared to vehicle (dimethyl sulfoxide) reactions. IC50 values and curve fits were obtained using Prism (GraphPad Software).

recombinant human LRRK2 (catalytic domain only [amino acids 970-2527], GST-tagged), sequence (Q5S007 970-2527): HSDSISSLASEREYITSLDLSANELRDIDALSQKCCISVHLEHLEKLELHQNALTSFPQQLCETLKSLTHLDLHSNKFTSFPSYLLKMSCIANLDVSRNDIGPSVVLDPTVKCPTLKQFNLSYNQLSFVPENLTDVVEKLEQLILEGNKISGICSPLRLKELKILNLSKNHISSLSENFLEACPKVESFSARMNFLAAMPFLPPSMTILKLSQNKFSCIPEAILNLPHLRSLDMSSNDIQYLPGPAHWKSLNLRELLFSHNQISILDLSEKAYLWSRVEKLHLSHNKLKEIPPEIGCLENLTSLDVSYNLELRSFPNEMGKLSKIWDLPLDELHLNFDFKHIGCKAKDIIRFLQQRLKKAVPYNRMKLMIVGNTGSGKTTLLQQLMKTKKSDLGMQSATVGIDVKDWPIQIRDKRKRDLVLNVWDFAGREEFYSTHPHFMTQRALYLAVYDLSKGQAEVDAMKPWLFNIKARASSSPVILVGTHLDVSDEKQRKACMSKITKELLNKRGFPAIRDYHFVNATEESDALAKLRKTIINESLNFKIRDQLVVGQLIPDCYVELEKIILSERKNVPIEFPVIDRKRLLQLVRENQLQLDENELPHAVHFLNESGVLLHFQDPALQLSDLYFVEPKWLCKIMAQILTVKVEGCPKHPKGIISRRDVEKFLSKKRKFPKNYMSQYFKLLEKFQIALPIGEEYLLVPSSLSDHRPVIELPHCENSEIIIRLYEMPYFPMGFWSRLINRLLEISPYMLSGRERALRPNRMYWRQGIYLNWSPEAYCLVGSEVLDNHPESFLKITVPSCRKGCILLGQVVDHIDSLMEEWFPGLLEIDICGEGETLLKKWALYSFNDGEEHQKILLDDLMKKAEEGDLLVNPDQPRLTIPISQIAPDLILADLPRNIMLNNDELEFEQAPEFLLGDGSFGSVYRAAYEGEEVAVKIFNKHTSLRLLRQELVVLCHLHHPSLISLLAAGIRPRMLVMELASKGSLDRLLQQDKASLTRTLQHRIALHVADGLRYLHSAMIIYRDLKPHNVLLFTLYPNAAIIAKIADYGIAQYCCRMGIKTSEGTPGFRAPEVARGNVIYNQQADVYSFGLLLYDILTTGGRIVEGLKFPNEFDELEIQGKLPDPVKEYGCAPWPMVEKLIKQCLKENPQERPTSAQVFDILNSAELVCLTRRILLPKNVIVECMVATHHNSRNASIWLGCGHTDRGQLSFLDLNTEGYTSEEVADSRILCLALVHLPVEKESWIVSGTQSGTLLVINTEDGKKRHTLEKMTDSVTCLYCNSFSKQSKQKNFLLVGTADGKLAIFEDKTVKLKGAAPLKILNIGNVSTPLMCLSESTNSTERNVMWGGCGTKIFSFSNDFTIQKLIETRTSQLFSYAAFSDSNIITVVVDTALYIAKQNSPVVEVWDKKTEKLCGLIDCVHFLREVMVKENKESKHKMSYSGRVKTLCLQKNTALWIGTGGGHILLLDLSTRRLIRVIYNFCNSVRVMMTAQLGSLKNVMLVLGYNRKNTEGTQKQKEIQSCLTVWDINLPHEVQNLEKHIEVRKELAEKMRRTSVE

Structure (SMILES): CN[C@H]1CC[C@H](COc2nc(Nc3ccc(N4CCOCC4)cc3)ncc2C2CC2)CC1 [Example 45, 5-cyclopropyl-4-(((1R,4R)-4-(methylamino)cyclo-hexyl)methoxy)-N-(4-morpholinophenyl) pyrimidin-2-amine]
- pIC50: 6.70 to 7.30

Structure (SMILES): CNC1CCCC(COc2ccnc(Nc3ccc(N4CCOCC4)cc3)n2)C1 (stereo not drawn) [Example 47, 4-((3-(methylamino)cyclo-hexyl)methoxy)-N-(4-morpholinophenyl) pyrimidin-2-amine]
- pIC50: 6.40 to 6.70

Structure (SMILES): CNC[C@H]1CC[C@H](COc2ccnc(Nc3ccc(N4CCOCC4)cc3)n2)CC1 [Example 48, 4-(((1R,4R)-4-((methylamino)methyl)cyclohexyl)methoxy)-N-(4-morpholinophenyl)py-rimidin-2-amine]
- pIC50: 6.70 to 7.30

Structure (SMILES): CNC[C@H]1CC[C@H](COc2nc(Nc3ccc(N4CCOCC4)cc3)ncc2Cl)CC1 [Example 49, 5-chloro-4-(((1R,4R)-4-((methylamino)methyl)cyclohexyl)methoxy)-N-(4-morpholinophenyl)py-rimidin-2-amine]
- pIC50: > 7.30

Structure (SMILES): CNC[C@H]1CC[C@H](COc2nc(Nc3cnn(C4CC(C#N)C4)c3C)ncc2Cl)CC1 (stereo partly drawn) [Example 50, 3-(4-((5-chloro-4-(((1R,4R)-4-((methylamino)methyl)cyclohexyl)methoxy)pyrimidin-2-yl)amino)-5-methyl-1H-pyrazol-1-yl)cyclobutane-1-carbonitrile]
- pIC50: > 7.30

Structure (SMILES): CNC[C@H]1CC[C@H](COc2nc(Nc3cn(C4CC(C#N)C4)nc3C)ncc2Cl)CC1 (stereo partly drawn) [Example 51, 3-(4-((5-chloro-4-(((1R,4R)-4-((methylamino)methyl)cyclohexyl)methoxy)pyrimidin-2-yl)amino)-3-methyl-1H-pyrazol-1-yl)cyclobutane-1-carbonitrile]
- pIC50: > 7.30

Structure (SMILES): CN[C@H]1CC[C@@H](COc2nc(Nc3cnn(C4CC(C#N)C4)c3C)ncc2Cl)C1 (stereo partly drawn) [Example 52, 3-(4-((5-chloro-4-(((1R,3S)-3-(methylamino)cyclo-pentyl)methoxy)py-rimidin-2-yl)amino)-5-methyl-1H-pyrazol-1-yl)cyclobutane-1-carbonitrile]
- pIC50: > 7.30

Structure (SMILES): CN[C@H]1CC[C@@H](COc2nc(Nc3cn(C4CC(C#N)C4)nc3C)ncc2Cl)C1 (stereo partly drawn) [Example 53, 3-(4-((5-chloro-4-(((1R,3S)-3-(methylamino)cyclo-pentyl)methoxy)py-rimidin-2-yl)amino)-3-methyl-1H-pyrazol-1-yl)cyclobutane-1-carbonitrile]
- pIC50: > 7.30

Structure (SMILES): CNC1(COc2nc(Nc3ccc(N4CCOCC4)cc3)ncc2Cl)CC1 [Example 54, 5-chloro-4-((1-(methylamino)cyclo-propyl)methoxy)-N-(4-morpholinophenyl)py-rimidin-2-amine]
- pIC50: 6.40 to 6.70

Structure (SMILES): COc1cnc(Nc2ccc(N3CCOCC3)cc2)nc1OC[C@H]1CC[C@H](N(C)C)CC1 [Example 55, 4-(((1R,4R)-4-(dimethylamino)cyclo-hexyl)methoxy)-5-methoxy-N-(4-morpholinophenyl)py-rimidin-2-amine]
- pIC50: > 7.30

Structure (SMILES): CN1CCC(COc2nc(Nc3ccc(N4CCOCC4)cc3)ncc2Cl)CC1 [Example 56, 5-chloro-4-((1-methylpiperidin-4-yl)methoxy)-N-(4-morpholinophenyl)py-rimidin-2-amine]
- pIC50: > 7.30

Structure (SMILES): Cc1nn(C(C)(C)C#N)cc1Nc1ncc(Cl)c(OCC2CCN(C)CC2)n1 [Example 57, 2-(4-((5-chloro-4-((1-methylpiperidin-4-yl)methoxy)pyrimidin-2-yl)amino)-3-methyl-1H-pyrazol-1-yl)-2-methylpropanenitrile]
- pIC50: 6.70 to 7.30

Structure (SMILES): Cc1c(Nc2ncc(Cl)c(OCC3CCN(C)CC3)n2)cnn1C1CC(C#N)C1 (stereo not drawn) [Example 58, 3-(4-((5-chloro-4-((1-methylpiperidin-4-yl)methoxy)pyrimidin-2-yl)amino)-5-methyl-1H-pyrazol-1-yl)cyclobutane-1-carbonitrile]
- pIC50: > 7.30

Structure (SMILES): Cc1nn(C2CC(C#N)C2)cc1Nc1ncc(Cl)c(OCC2CCN(C)CC2)n1 (stereo not drawn) [Example 59, 3-(4-((5-chloro-4-((1-methylpiperidin-4-yl)methoxy)pyrimidin-2-yl)amino)-3-methyl-1H-pyrazol-1-yl)cyclobutane-1-carbonitrile]
- pIC50: 6.40 to 6.70

Structure (SMILES): Cc1nn(C(C)(C)C#N)cc1Nc1nccc(OCC2(F)CCN(C)CC2)n1 [Example 60, 2-(4-((4-((4-fluoro-1-methylpiperidin-4-yl)methoxy)pyrimidin-2-yl)amino)-3-methyl-1H-pyrazol-1-yl)-2-methylpropanenitrile]
- pIC50: < 6.40

Structure (SMILES): Cc1nn(C(C)(C)C#N)cc1Nc1ncc(Cl)c(OCC2(F)CCN(C)CC2)n1 [Example 61, 2-(4-((5-chloro-4-((4-fluoro-1-methylpiperidin-4-yl)methoxy)pyrimidin-2-yl)amino)-3-methyl-1H-pyrazol-1-yl)-2-methylpropanenitrile]
- pIC50: > 7.30

Structure (SMILES): Cc1nn(C2CC(C#N)C2)cc1Nc1ncc(Cl)c(OCC2(F)CCN(C)CC2)n1 (stereo not drawn) [Example 62, 3-(4-((5-chloro-4-((4-fluoro-1-methylpiperidin-4-yl)methoxy)pyrimidin-2-yl)amino)-3-methyl-1H-pyrazol-1-yl)cyclobutane-1-carbonitrile]
- pIC50: 6.40 to 6.70

Structure (SMILES): Cc1nn(C2CC(C#N)C2)cc1Nc1ncc(Cl)c(OCC2CCN(C)CC2F)n1 (stereo not drawn) [Example 63, 3-(4-((5-chloro-4-((3-fluoro-1-methylpiperidin-4-yl)methoxy)pyrimidin-2-yl)amino)-3-methyl-1H-pyrazol-1-yl)cyclobutane-1-carbonitrile]
- pIC50: < 6.40

Structure (SMILES): CN1CCC(F)(COc2nc(Nc3ccc(N4CCOCC4)cc3)ncc2F)CC1 [Example 64, 5-fluoro-4-((4-fluoro-1-methylpiperidin-4-yl)methoxy)-N-(4-morpholinophenyl)py-rimidin-2-amine]
- pIC50: < 6.40

Structure (SMILES): C[C@@H]1CN(c2ccc(Nc3ncc(F)c(OCC4(F)CCN(C)CC4)n3)cc2)C[C@H](C)O1 [Example 65, N-(4-((2R,6S)-2,6-dimethylmorpholino)phenyl)-5-fluoro-4-((4-fluoro-1-methylpiperidin-4-yl)methoxy)pyrimidin-2-amine]
- pIC50: 6.70 to 7.30

Structure (SMILES): Cc1nn(C(C)(C)C#N)cc1Nc1ncc(F)c(OCC2(F)CCN(C)CC2)n1 [Example 66, 2-(4-((5-fluoro-4-((4-fluoro-1-methylpiperidin-4-yl)methoxy)pyrimidin-2-yl)amino)-3-methyl-1H-pyrazol-1-yl)-2-methylpropanenitrile]
- pIC50: < 6.40

Structure (SMILES): Cc1nn(C(C)(C)C#N)cc1Nc1ncc(F)c(OCC2CCN(C)CC2)n1 [Example 67, 2-(4-((5-fluoro-4-((1-methylpiperidin-4-yl)methoxy)pyrimidin-2-yl)amino)-3-methyl-1H-pyrazol-1-yl)-2-methylpropanenitrile]
- pIC50: < 6.40

Structure (SMILES): Cc1nn(C(C)(C)C#N)cc1Nc1ncc(Cl)c(OCC2CN(C)C2)n1 [Example 68, 2-(4-((5-chloro-4-((1-methylazetidin-3-yl)methoxy)pyrimidin-2-yl)amino)-3-methyl-1H-pyrazol-1-yl)-2-methylpropanenitrile]
- pIC50: < 6.40

Structure (SMILES): Cc1nn(C2CC(C#N)C2)cc1Nc1ncc(Cl)c(OCC2(F)CN(C)C2)n1 (stereo not drawn) [Example 69, 3-(4-((5-chloro-4-((3-fluoro-1-methylazetidin-3-yl)methoxy)pyrimidin-2-yl)amino)-3-methyl-1H-pyrazol-1-yl)cyclobutane-1-carbonitrile]
- pIC50: < 6.40

Structure (SMILES): Cc1nn(C(C)(C)C#N)cc1Nc1ncc(Cl)c(OCC2CC3(C2)CN(C)C3)n1 [Example 70, 2-(4-((5-chloro-4-((2-methyl-2-azaspiro[3.3]heptan-6-yl)methoxy)pyrimidin-2-yl)amino)-3-methyl-1H-pyrazol-1-yl)-2-methylpropanenitrile]
- pIC50: > 7.30

Structure (SMILES): CC1(C(=O)N[C@H]2CC[C@H](COc3ccnc(Nc4ccc(N5CCOCC5)cc4)n3)CC2)CC1 [Example 71, 1-methyl-N-((1R,4R)-4-(((2-((4-morpholinophenyl)amino)pyrimidin-4-yl)oxy)methyl)cyclo-hexyl)cyclopropane-1-carboxamide]
- pIC50: < 6.40

Structure (SMILES): CC(=O)N[C@H]1CC[C@H](COc2ccnc(Nc3ccc(N4CCOCC4)cc3)n2)CC1 [Example 72, N-((1R,4R)-4-(((2-((4-morpholinophenyl)amino)pyrimidin-4-yl)oxy)methyl)cyclo-hexyl)acetamide]
- pIC50: 6.70 to 7.30

Structure (SMILES): CC(=O)N[C@H]1CC[C@H](COc2ccnc(Nc3ccc(N4C[C@@H](C)O[C@@H](C)C4)cc3)n2)CC1 [Example 73, N-((1R,4R)-4-(((2-((4-((2R,6S)-2,6-dimethylmorpholino)phenyl)amino)pyrimidin-4-yl)oxy)methyl)cyclo-hexyl)acetamide]
- pIC50: 6.70 to 7.30

Structure (SMILES): CC(=O)N[C@H]1CC[C@H](COc2ccnc(Nc3cn(C(C)(C)C#N)nc3C)n2)CC1 [Example 74, N-((1R,4R)-4-(((2-((1-(2-cyanopropan-2-yl)-3-methyl-1H-pyrazol-4-yl)amino)pyrimidin-4-yl)oxy)methyl)cyclo-hexyl)acetamide]
- pIC50: 6.70 to 7.30

Structure (SMILES): CC(=O)N[C@H]1CC[C@H](COc2ccnc(Nc3cn(C4CC(C#N)C4)nc3C)n2)CC1 (stereo partly drawn) [Example 75, N-((1R,4R)-4-(((2-((1-(3-cyanocyclobutyl)-3-methyl-1H-pyrazol-4-yl)amino)pyrimidin-4-yl)oxy)methyl)cyclo-hexyl)acetamide]
- pIC50: < 6.40
